According to US6586441B2, “Adenosine receptor ligands and their use in the treatment of disease” (Hoffman-La Roche Inc., priority 2000, dated 2003):

Target: T1, human adenosine A2A receptor (Homo sapiens, UniProt P29274)
T1 construct: expressed in transfected cells; host or cells: CHO cells, semliki forest virus expression system; membrane preparation
Assay: Human adenosine A2A receptor [3H]-SCH-58261 binding assay
Settings: human A2a receptor, membranes of CHO cells, [3H]-SCH-58261; for Ki: read-out: pKi (affinity to the human A2a receptor) (converted)
Experimental: The gene encoding human adenosine A2A receptor was recombinantly introduced and expressed in chinese hamster ovary (CHO) cells using the semliki forest virus expression system. Cells were harvested, washed twice by centrifugation, homogenised and again washed by centrifugation. The final washed membrane pellet was suspended in a Tris (50 mM) buffer containing 120 mM NaCl, 5 mM KCl, 2 mM CaCl2 and 10 mM MgCl2 (pH 7.4) (buffer A). The [^3H]-SCH-58261 (Dionisotti et al., 1997, Br. J. Pharmacol. 121, 353; 1 nM) binding assay was carried out in 96-well plates in the presence of 2.5 μg of membrane protein, 0.5 mg of Ysi-poly-1-lysine SPA beads and 0.1 U adenosine deaminase in a final volume of 200 μl of buffer A. Non-specific binding was defined using xanthine amine congener (XAC; […]). Compounds were tested at 10 concentrations from 10 μM-0.3 nM. All assays were conducted in duplicate and repeated at least two times. Assay plates were incubated for 1 hour at room temperature before centrifugation and then bound ligand determined using a Packard Topcount scintillation counter. IC50 values were calculated using a non-linear curve fitting program and Ki values calculated using the Cheng-Prussoff equation.

T1 sequence (P29274 whole entry): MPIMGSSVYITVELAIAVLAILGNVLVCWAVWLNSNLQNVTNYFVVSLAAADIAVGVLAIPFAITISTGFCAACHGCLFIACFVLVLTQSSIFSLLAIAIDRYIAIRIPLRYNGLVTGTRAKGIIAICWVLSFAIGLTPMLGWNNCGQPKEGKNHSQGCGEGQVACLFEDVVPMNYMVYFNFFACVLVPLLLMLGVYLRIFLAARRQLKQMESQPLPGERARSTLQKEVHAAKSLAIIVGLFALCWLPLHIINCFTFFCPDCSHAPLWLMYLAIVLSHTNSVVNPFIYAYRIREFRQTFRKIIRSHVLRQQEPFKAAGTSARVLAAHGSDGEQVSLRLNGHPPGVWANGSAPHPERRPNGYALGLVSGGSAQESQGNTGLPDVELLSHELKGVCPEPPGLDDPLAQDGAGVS

| SMILES | Ki | pKi (affinity to the human A2a receptor) |
| --- | --- | --- |
| CCCCSc1nc(N)nc(-c2ccco2)c1C#N [Example 60, 2-Amino-4-butylsulfanyl-6-furan-2-yl-pyrimidine-5-carbonitrile] | 4.57 nM | – |
| Cc1ccc(COc2nc(N)nc(-c3ccc(Cl)o3)c2C#N)nc1 [Example 531, 2-Amino-4-(5-chloro-furan-2-yl)-6-(5-methyl-pyridin-2-yl-methoxy)-pyrimidine-5-carbonitrile] | 5.62 nM | – |
| Nc1nc(SCc2ccccc2)c(Cl)c(-c2ccco2)n1 [Example 324, 4-Benzylsulfanyl-5-chloro-6-furan-2-yl-pyrimidin-2-yl-amine] | 9.12 nM | – |
| N#Cc1c(SCCc2ccccn2)nc(N)nc1-c1ccc(Cl)o1 [Example 478] | – | 8.96 |
| N#Cc1c(SCc2ccccn2)nc(N)nc1-c1ccco1 [Example 284, 2-Amino-4-furan-2-yl-6-(pyridin-2-ylmethylsulfanyl)-pyrimidine-5-carbonitrile] | 3.89 nM | – |
| Cc1cnc(COc2nc(N)nc(-c3ccc(C)o3)c2C#N)c(C)c1 [Example 466, 2-Amino-4-(3,5-dimethyl-pyridin-2-ylmethoxy)-6-(5-methyl-furan-2-yl)-pyrimidine-5′-carbonitrile] | – | 8.97 |
| Nc1nc(OCCc2ccccc2)c(Cl)c(-c2ccco2)n1 [Example 322, 5-Chloro-4-furan-2-yl-6-phenethyloxy-pyrimidin-2-yl-amine] | 9.77 nM | – |
| Cc1cnc(COc2nc(N)nc(-c3ccc(Cl)o3)c2C#N)c(C)c1 [Example 526, 2-Amino-4-(5-chloro-furan-2-yl)-6-(3,5-dimethyl-pyridin-2-ylmethoxy)-pyrimidine-5-carbonitrile] | 4.27 nM | – |
| Cc1cccnc1COc1nc(N)nc(-c2cc(Br)co2)c1C#N [Example 534, 2-Amino-4-(4-bromo-furan-2-yl)-6-(3-methyl-pyridin-2-yl-methoxy)-pyrimidine-5-carbonitrile] | 0.955 nM | – |
| N#Cc1c(OCc2ccccn2)nc(N)nc1-c1cccs1 [Example 206, 2-Amino-4-(pyridin-2-ylmethoxy)-6-thiophen-2-yl-pyrimidine-5-carbonitrile] | 9.55 nM | – |
| N#Cc1c(OC2CCCCC2)nc(N)nc1-c1ccco1 [Example 55, 2-Amino-4-cyclohexyloxy-6-furan-2-yl-pyrimidine-5-carbonitrile] | 7.41 nM | – |
| Cc1cccnc1COc1nc(N)nc(-c2ccc(Cl)o2)c1C#N [Example 530, 2-Amino-4-(5-chloro-furan-2-yl)-6-(3-methyl-pyridin-2-yl-methoxy)-pyrimidine-5-carbonitrile] | 1.74 nM | – |
| N#Cc1c(SCCc2ccccn2)nc(N)nc1-c1ccc(C(F)F)o1 [Example 538, 2-Amino-4-(5-difluoromethyl-furan-2-yl)-6-(2-pyridin-2-yl-ethylsulfanyl)-pyrimidine-5-carbonitrile] | 1.95 nM | – |
| N#Cc1c(SCCc2ccccn2)nc(N)nc1-c1cc(Br)co1 [Example 521, 2-Amino-4-(4-bromo-furan-2-yl)-6-(2-pyridin-2-yl-ethylsulfanyl)-pyrimidine-5-carbonitrile] | 1.17 nM | – |
| N#Cc1c(OCc2ccccn2)nc(N)nc1-c1ccco1 [Example 76, 2-Amino-4-furan-2-yl-6-(pyridin-2-ylmethoxy)-pyrimidine-5-carbonitrile] | 2.09 nM | – |
| Cc1cccnc1COc1cc(N)nc(-c2ccco2)c1C#N [Example 383, 6-Amino-2-furan-2-yl-4-(3-methyl-pyridin-2-yl-methoxy)-nicotinonitrile] | 1.91 nM | – |
| Cc1ccc(COc2nc(N)nc(-c3cc(Br)co3)c2C#N)nc1 [Example 532, 2-Amino-4-(4-bromo-furan-2-yl)-6-(5-methyl-pyridin-2-yl-methoxy)-pyrimidine-5-carbonitrile] | 5.62 nM | – |
| N#Cc1c(OCCc2ccccn2)cc(N)nc1-c1ccco1 [Example 384, 6-Amino-2-furan-2-yl-4-(2-pyridin-2-yl-ethoxy)-nicotinonitrile] | 3.02 nM | – |
| N#Cc1c(SCCc2ccccn2)cc(N)nc1-c1ccco1 [Example 356, 6-Amino-2-furan-2-yl-4-(2-pyridin-2-yl-ethylsulfanyl)-nicotinonitrile] | 0.912 nM | – |
| N#Cc1c(-c2ccco2)nc(N)nc1N1CCCCC1 [Example 41, 2-Amino-4-furan-2-yl-6-piperidin-1-yl-pyrimidine-5-carbonitrile] | 8.51 nM | – |

Other lines, results leading:

| Ki | pKi (affinity to the human A2a receptor) | SMILES |
| --- | --- | --- |
| 1.82 nM | – | N#Cc1c(OCc2cc3ccccc3cn2)nc(N)nc1-c1ccco1 [Example 366, 2-Amino-4-furan-2-yl-6-(isoguinolin-3-yl-methoxy)-pyrimidine-5-carbonitrile] |
| 2.63 nM | – | Cc1ccc(COc2nc(N)nc(-c3ccco3)c2C#N)nc1 [Example 362, 2-Amino-4-furan-2-yl-6-(5-methyl-pyridin-2-yl-methoxy)-pyrimidine-5-carbonitrile] |
| 2.75 nM | – | N#Cc1c(SCCc2ccccc2)nc(N)nc1-c1ccco1 [Example 233, 2-Amino-4-furan-2-yl-6-phenethylsulfanyl-pyrimidine-5-carbonitrile] |
| 0.631 nM | – | N#Cc1c(NCc2ccccc2Br)nc(N)nc1-c1ccco1 [Example 359, 2-Amino-4-(2-bromo-benzylamino)-6-furan-2-yl-pyrimidine-5-carbonitrile] |
| 7.76 nM | – | N#Cc1c(NCCSc2ccccc2)nc(N)nc1-c1ccco1 [Example 302, 2-Amino-4-furan-2-yl-6-(2-phenylsulfanyl-ethylamino)-pyrimidine-5-carbonitrile] |
| 1.38 nM | – | N#Cc1c(NCc2ccc3ccccc3n2)nc(N)nc1-c1ccco1 [Example 297, 2-Amino-4-furan-2-yl-6-[(quinolin-2-ylmethyl)-amino]-pyrimidine-5-carbonitrile] |
| 3.24 nM | – | Cc1ccc(CNc2nc(N)nc(-c3ccco3)c2C#N)nc1 [Example 363, 2-Amino-4-furan-2-yl-6-[(5-methyl-pyridin-2-yl-methyl)-amino]-pyrimidine-5-carbonitrile] |
| 9.77 nM | – | N#Cc1nc(N)nc(-c2ccco2)c1C#N [Example 94, 2-Amino-6-furan-2-yl-pyrimidine-4,5-dicarbonitrile] |
| 6.46 nM | – | N#Cc1c(NCCc2ccc(O)cc2)nc(N)nc1-c1ccco1 [Example 58, 2-Amino-4-furan-2-yl-6-[2-(4-hydroxy-phenyl)-ethylamino]-pyrimidine-5-carbonitrile] |
| 8.13 nM | – | N#Cc1c(-c2ccco2)nc(N)nc1N1CCc2ccccc2C1 [Example 336, 2-Amino-4-(3,4-dihydro-1H-isoquinolin-2-yl)-6-furan-2-yl-pyrimidine-5-carbonitrile] |
| 5.89 nM | – | N#Cc1c(NCc2ccccn2)nc(N)nc1-c1ccco1 [Example 283, 2-Amino-4-furan-2-yl-6-[(pyridin-2-ylmethyl)-amino]-pyrimidine-5-carbonitrile] |
| 0.589 nM | – | N#Cc1c(NCc2ccccc2Cl)nc(N)nc1-c1ccco1 [Example 360, 2-Amino-4-(2-chloro-benzylamino)-6-furan-2-yl-pyrimidine-5-carbonitrile] |
| 6.61 nM | – | N#Cc1c(NCc2ccc3c(c2)OCO3)nc(N)nc1-c1ccco1 [Example 337, 2-Amino-4-[(benzo [1,3]dioxol-5-ylmethyl)-amino]-6-furan-2-yl-pyrimidine-5-carbonitrile] |
| 2.14 nM | – | Cc1cnc(CNc2nc(N)nc(-c3ccco3)c2C#N)c(C)c1 [Example 402, 2-Amino-4-[(3,5-dimethyl-pyridin-2-ylmethyl)-amino]-6-furan-2-yl-pyrimidine-5-carbonitrile] |
| 3.98 nM | – | N#Cc1c(SCc2ccccc2)nc(N)nc1-c1ccco1 [Example 52, 2-Amino-4-benzylsulfanyl-6-furan-2-yl-pyrimidine-5-carbonitrile] |
| 1.66 nM | – | Cc1ccc(CNc2nc(N)nc(-c3ccco3)c2C#N)cc1C [Example 347, 2-Amino-4-(3,4-dimethyl-benzylamino)-6-furan-2-yl-pyrimidine-5-carbonitrile] |
| 3.47 nM | – | Cc1ccc(COc2nc(N)nc(-c3ccco3)c2C#N)cn1 [Example 381, 2-Amino-4-furan-2-yl-6-(6-methyl-pyridin-3-yl-methoxy)-pyrimidine-5-carbonitrile] |
| 5.5 nM | – | N#Cc1c(SCCCc2ccccc2)nc(N)nc1-c1ccco1 [Example 234, 2-Amino-4-furan-2-yl-6-(3-phenyl-propylsulfanl)-pyrimidine-5-carbonitrile] |
| 7.41 nM | – | N#Cc1c(OCCCc2ccccc2)nc(N)nc1-c1ccco1 [Example 54, 2-Amino-4-furan-2-yl-6-(3-phenyl-propoxy)-pyrimidine-5-carbonitrile] |
| 2.09 nM | – | Cc1ccnc(CNc2nc(N)nc(-c3ccco3)c2C#N)c1 [Example 348, 2-Amino-4-furan-2-yl-6-[(4-methyl-pyridin-2-ylmethyl)-amino]-pyrimidine-5-carbonitrile] |
| 1.86 nM | – | Cc1cccnc1CNc1nc(N)nc(-c2ccco2)c1C#N [Example 368, 2-Amino-4-furan-2-yl-6-[(3-methyl-pyridin-2-yl-methyl)-amino]-pyrimidine-5-carbonitrile] |
| 9.12 nM | – | N#Cc1c(NCc2ccc(C(F)(F)F)cc2)cc(N)nc1-c1ccco1 [Example 357] |
| – | 8.88 | N#Cc1c(NCc2ccccc2Br)nc(N)nc1-c1ccc(Br)o1 [Example 512, 2-Amino-4-(2-bromo-benzylamino)-6-(5-bromo-furan-2-yl)-pyrimidine-5-carbonitrile] |
